± gives the expanded uncertainty stated by the source.
Assay: xn = mol fraction of the nth substance listed
Details: 100 kPa, Liquid; for viscosity: Capillary tube (Ostwald / Ubbelohde) method; for speed of sound: Frequency=3 MHz, Single path-length method; for mass density: Vibrating tube method

CC[S+](CC)CC.O=S(=O)([N-]S(=O)(=O)C(F)(F)F)C(F)(F)F [triethylsulfonium bis((trifluoromethyl)sulfonyl)imide] + CCCO
Details | mass density, 293.15 K [kg/m3] | mass density, 298.15 K [kg/m3] | mass density, 303.15 K [kg/m3] | speed of sound, 293.15 K [m/s] | speed of sound, 298.15 K [m/s] | speed of sound, 303.15 K [m/s] | viscosity, 293.15 K [mPa·s] | viscosity, 298.15 K [mPa·s] | viscosity, 303.15 K [mPa·s]
x1 = 0.04926 | 910 ± 2 | 906 ± 2 | 901 ± 2 | 1205.5 ± 6 | 1190.3 ± 6 | 1174.8 ± 6 | 2.874 ± 0.23 | 2.515 ± 0.2 | 2.216 ± 0.18
x1 = 0.1003 | 996 ± 2 | 992 ± 2 | 987 ± 2 | 1194.3 ± 6 | 1179.9 ± 6 | 1165.6 ± 6 | 4.059 ± 0.33 | 3.438 ± 0.28 | 2.978 ± 0.24
x1 = 0.1993 | 1120 ± 2 | 1115 ± 2 | – | 1195 ± 6 | 1181.8 ± 6 | 1168.7 ± 6 | 5.998 ± 0.48 | 5.082 ± 0.41 | 4.379 ± 0.35
x1 = 0.3008 | 1209 ± 3 | 1204 ± 2 | – | 1203.1 ± 6 | 1190.5 ± 6 | 1178.1 ± 6 | 7.862 ± 0.63 | 6.704 ± 0.54 | 5.78 ± 0.46
x1 = 0.3991 | 1273 ± 3 | 1268 ± 3 | – | 1212.3 ± 6 | 1200.2 ± 6 | 1188.2 ± 6 | 10.68 ± 0.86 | 9.087 ± 0.73 | 7.814 ± 0.63
x1 = 0.5023 | 1324 ± 3 | 1319 ± 3 | – | 1222.2 ± 6 | 1210.3 ± 6 | 1198.7 ± 6 | 12.28 ± 0.98 | 10.45 ± 0.84 | 8.985 ± 0.72
x1 = 0.5987 | 1363 ± 3 | 1358 ± 3 | – | 1228.5 ± 6 | 1217 ± 6 | 1205.5 ± 6 | 15.93 ± 1.3 | 13.49 ± 1.1 | 11.56 ± 0.93
x1 = 0.6987 | 1395 ± 3 | 1390 ± 3 | – | 1235.2 ± 6 | 1223.8 ± 6 | 1212.6 ± 6 | 19.92 ± 1.6 | 16.79 ± 1.3 | 14.33 ± 1.1
x1 = 0.7947 | 1421 ± 3 | 1416 ± 3 | – | 1240.6 ± 6.1 | 1229.4 ± 6.1 | 1218.3 ± 6.1 | 24.95 ± 2 | 20.88 ± 1.7 | 17.71 ± 1.4
x1 = 0.903 | 1446 ± 3 | 1441 ± 3 | – | 1245.8 ± 6.1 | 1234.8 ± 6.1 | 1223.9 ± 6.1 | 31.64 ± 2.5 | 26.25 ± 2.1 | 22.1 ± 1.8
x1 = 1 | 1465 ± 3 | 1460 ± 3 | – | 1252.9 ± 6.1 | 1242.5 ± 6.1 | 1232.4 ± 6.1 | 39.64 ± 3.2 | 32.43 ± 2.6 | 26.92 ± 2.2

Reference: the NIST ThermoML archive (doi:10.1021/acs.jced.8b00537)
